Results from patent US8481515B2, “Derivatives of cholest-4-en-3-one oxime, pharmaceutical compositions containing them and preparation method” (Trophos, priority 2005, dated 2013).

Assays:
[1] = test system: cortical neurons; test: protection of cortical neurons against camptothecin-induced death (calcein-AM cell count); type: cell-based, Sprague-Dawley rat; conditions: 10 μM camptothecin, 16 hours, mean ± standard deviation, n = 8 wells
Description: Cortical neurons were prepared from Sprague-Dawley rat embryos in the E18 pregnancy stage and cultivated in a 96-well plate at a density of 333 cells/mm^2 in Neurobasal medium (Invitrogen) supplemented with 2% B27 (Invitrogen) and 2% sodium pyruvate. With these culture conditions, it is possible to obtain very good cortical neuron purity in the cultures. After 6 days in culture, the death of cortical neurons was induced by adding 10 μM camptothecin dissolved in dimethyl sulfoxide (DMSO). At the same moment, the neurons were treated with different concentrations of the compound to be tested. The final DMSO concentration after treatment is 1%. After 16 hours of incubation with camptothecin, the survival of the neurons was evaluated by counting the surviving cells. To do this, the cells were incubated for 20 minutes in the presence of a vital dye, calcein-AM (Invitrogen) at 2 μg/ml. After labelling, each culture well was analyzed by means of an imaging station (Flash Cytometer, TROPHOS, FRANCE) provided with an image analysis software package TINA 4.5 (TROPHOS, France) allowing acquisition of digital images of the whole of the well (exposure time 40 ms). The cells, defined by pixel size criteria (min=10; max=40), were then counted by means of the Tina 4.5 software package (TROPHOS)

[2] = test system: striatal neurons; test: protection of striatal neurons against death induced by overexpression of a mutated form of huntingtin; type: cell-based; conditions: 7 days, living cells expressing GFP
Description: Primary cultures of striatal neurons are prepared and they are described in the literature (Primary striatal neuronal culture, Mao L. et al., Methods Mol. Med., 2003, 79:379-86). […] A second expression vector containing the DNA coding for the green fluorescent protein (GFP) is also electroporated and is used as a reporter gene. The DNA of the plasmid coding for the huntingtin was prepared by purifying with cesium chloride. The plasmid containing the GFP sequence was prepared on Qiagen columns. The integrity of the DNA sequences is checked by sequencing, transfection and Western blotting. The cells which survive electroporation are sown at a density of 4,000 cellules per well of 96-well plates. The culture is accomplished in neurobasal medium (GIBCO) supplemented with pyruvate and B-27 (Beckton Dickinson). The cells are maintained in culture for 7 days without changing the medium.
[…] Positive controls are made by adding BDNF at a final level of 5 ng/ml. The negative controls only receive 0.5% DMSO.
Cell death is evaluated after 7 days by counting the number of living cells expressing GFP.
The activity of the compounds to be tested was evaluated by their capacity of preventing death of striatal neurons cultivated in the neurobasal medium as compared with the survival of striatal neurons in a medium supplemented with BDNF (Brain-Derived Neurotrophic Factor).

[3] = test system: rat motoneurons; test: in vitro trophic deprivation model of rat motoneurons (survival, calcein fluorescence); type: cell-based; conditions: 3 days of culture, no trophic factors
Excerpt: It may be helpful to refer to Patent Application WO 0142784 of the applicant on the culture of spinal cord motoneurons.
The spinal cord of E14 rat embryos is dissected and the ventral portion is dissociated by trituration after trypsinization. The motoneurons are separated from the other spinal cells by a known method (Camu et al, 1993, Purification of spinal motoneurons from chicken and rat embryos by immunopanning. In <<Immunoselection Strategies for Neural cell culture>>), Neuroprotocols: A companion to Methods in Neurosciences 2, 191-199; Henderson et al., 1993, Neutrophins promote motor neuron survival and are present in embryonic limb bud. Nature 363 (6426):266-70). The cells are centrifuged on a density gradient. The motoneurons are enriched with the fraction of large (the less dense) cells. The cells of this fraction are incubated with an anti-p75 antibody, a surface antigen present on motoneurons. Secondary antibodies coupled with magnetic beads are added and the cell mixture is passed through a column in a magnet (Arce et al, 1999 Cardiotrophin-1 requires LIFRbeta to promote survival of mouse motoneurons purified by a novel technique. J. Neurosci Res 55(1): 119-26). Only motoneurons are retained: their purity is of the order of 90%.
The motoneurons are sown at low density in culture wells on a polyornithine-laminine substrate in a neurobasal medium (GIBCO) supplemented according to Raoul et al, 1999, Programmed cell death of embryonic motoneurons triggered through the Fas death receptor. J. Cell. Biol. 147(5):1049-62. Negative (absence of trophic factors) controls and positive controls (in the presence of 1 ng/ml BDNF (Brain-Derived Neurotrophic Factor), 1 ng/ml GDNF (Glial-Derived Neurotrophic Factor) and 10 ng/ml CNTF (Ciliary Neurotrophic Factor) as marketed by the US company PEPROTECH, Inc. and Sigma-Aldrich) are included in each series.
The compounds to be tested are added 60 minutes after sowing and the cultures are maintained at 37° C. under 5% CO2 for 3 days.
The motoneurons tend to die spontaneously in the absence of neurotrophic factors (Pettmann and Henderson, 1998, Neuronal cell death. Neuron 20(4):633-47). After 3 days, survival is evaluated by a fluorescence measurement after incubation of the cells in the presence of calcein which becomes fluorescent in living cells.
After 3 days of culture at 37° C. under 5% CO2 and in saturating humidity, up to 50% of the initially sown motoneurons survive in the medium supplemented with neurotrophic factors, whereas less than 15% of the motoneurons survive in a culture medium not added with neurotrophic factors.
The neuroprotective activity of the compounds to be tested was evaluated by their capacity of preventing the death of motoneurons when they are added to the Neurobasal medium (GIBCO) as compared with survival of the motoneurons in a medium added with neurotrophic factors.
The compounds of formula I according to the invention have shown neuroprotective activity at a concentration capable of providing a better survival rate of the motoneurons in the Neurobasal medium. This survival rate is expressed by the number of living cells after treatment with the compound to be tested as compared with survival induced by neurotrophic factors. This ratio therefore represents the survival percentage due to the tested compound as compared with the survival induced by neurotrophic factors. If the ratio is greater than 0, the effect of the compound is positive for the survival of motoneurons.

Q: What does the source list for `CC(C)CCC[C@@H](C)[C@H]1CC[C@H]2[C@@H]3CC(=O)C4=CC(=NO)CC[C@]4(C)[C@H]3CC[C@]12C` [Example 3, 3-oxyimino-cholest-4-en-6-one]?
A: Cell viability (%) ([1]; 0.1 μM compound): 63.3 ± 20.3%; Cell viability (%) ([1]; 0.3 μM compound): 99.1 ± 15.7%; Cell viability (%) ([1]; 1 μM compound): 112.2 ± 22.3%; Ratio (survival of striatal neurons as compared with survival in medium supplemented with BDNF) ([2]; concentration 1 μM): 0.3; Ratio (survival of motoneurons with compound as compared with survival induced by neurotrophic factors) ([3]; concentration 3 μM): 0.60

Q: `CCC(C=C[C@@H](C)[C@H]1CC[C@H]2[C@@H]3CC(=O)C4=CC(=NO)CC[C@]4(C)[C@H]3CC[C@]12C)C(C)C` (stereo partly shown) [Example 7, 24-ethyl-3-oxyimino-cholest-4,22-dien-6-one] was tested. Which “Ratio (survival of motoneurons with compound as compared with survival induced by neurotrophic factors)” value ([3]; concentration 1 μM) did it give?
A: 0.46

Q: For `CC(C)CCC[C@@H](C)[C@H]1CC[C@H]2[C@@H]3CC(=NO)C4=CC(=NO)CC[C@]4(C)[C@H]3CC[C@]12C` [Example 9, cholest-4-en-3,6-dioxime], which “Ratio (survival of striatal neurons as compared with survival in medium supplemented with BDNF)” value ([2]; concentration 0.3 μM) is on record?
A: 0.5

Q: And the “Ratio (survival of motoneurons with compound as compared with survival induced by neurotrophic factors)” value ([3]; concentration 0.6 μM)?
A: 0.25

Q: With `CC(C)=CCC[C@@H](C)[C@H]1CC[C@H]2[C@@H]3CC(=NO)C4=CC(=NO)CC[C@]4(C)[C@H]3CC[C@]12C` [Example 10, cholest-4,24-dien-3,6-dioxime] as the compound, how does the “Ratio (survival of motoneurons with compound as compared with survival induced by neurotrophic factors)” value ([3]; concentration 1 μM) read?
A: 0.25

Q: Which “Ratio (survival of motoneurons with compound as compared with survival induced by neurotrophic factors)” value ([3]; concentration 1 μM) does the source give for `CCC(C=C[C@@H](C)[C@H]1CC[C@H]2[C@@H]3CC(=NO)C4=CC(=NO)CC[C@]4(C)[C@H]3CC[C@]12C)C(C)C` (stereo partly shown) [Example 13, 24-ethyl-cholest-4,22-dien-3,6-dioxime] here?
A: 0.34
